# Measured values as given in patent publication US8796244B2, “Imidazopyridine derivatives as inhibitors of receptor tyrosine kinases” (Astex Therapeutics Ltd, priority 2008, dated 2014).
# pIC50: −log10 of the molar value. Counter-ions that a name gives are not always drawn. Like-named read-outs stand apart in the source and are kept apart here.
# Columns and labels:
# FGFR3 = FGFR3 (Homo sapiens (Human), UniProt P22607); experiment: FGFR3 in vitro kinase inhibitory activity assay (TRF)
# VEGFR2 = VEGFR2 (Homo sapiens (Human), UniProt P35968); experiment: VEGFR2 in vitro kinase inhibitory activity assay (TRF, Flt3 substrate); format: biochemical; conditions: for inhibition at 3 µM: 1 h, read-out: VEGFR2 % I
# Ba/F3-TEL-FGFR3 cells = experiment: Ba/F3-TEL-FGFR3 cell proliferation assay (Alamar Blue); format: cell-based; conditions: for IC50: 72 h, read-out: BaF3-TEL-FGFR3 prolif (μM); for pIC50: 72 hours, Alamar Blue, read-out: BaF3-TEL-FGFR3 prolif
# [1] = tested on: LP-1 cell line (FGF-1/Heparin induced pERK); experiment: Cell-based pERK ELISA, LP-1 cells; conditions: Homo sapiens, LP-1, read-out: LP-1 pERK ELISA (μM)
# [2] = tested on: parental wild-type Ba/F3 cells; experiment: Ba/F3 (WT) cell proliferation assay (Alamar Blue); format: cell-based; conditions: Mus musculus; for IC50: BaF3, 72 h, read-out: BaF3 WT prolif (μM); for pIC50: 72 hours, Alamar Blue, read-out: BaF3 WT prolif
# [3] = BaF3, at 10 μM, read-out: BaF3 WT prolif, % inhibition
# [4] = BaF3, read-out: BaF3 WT prolif, % inhibition
# Chain of FGFR3 (P22607 23-806): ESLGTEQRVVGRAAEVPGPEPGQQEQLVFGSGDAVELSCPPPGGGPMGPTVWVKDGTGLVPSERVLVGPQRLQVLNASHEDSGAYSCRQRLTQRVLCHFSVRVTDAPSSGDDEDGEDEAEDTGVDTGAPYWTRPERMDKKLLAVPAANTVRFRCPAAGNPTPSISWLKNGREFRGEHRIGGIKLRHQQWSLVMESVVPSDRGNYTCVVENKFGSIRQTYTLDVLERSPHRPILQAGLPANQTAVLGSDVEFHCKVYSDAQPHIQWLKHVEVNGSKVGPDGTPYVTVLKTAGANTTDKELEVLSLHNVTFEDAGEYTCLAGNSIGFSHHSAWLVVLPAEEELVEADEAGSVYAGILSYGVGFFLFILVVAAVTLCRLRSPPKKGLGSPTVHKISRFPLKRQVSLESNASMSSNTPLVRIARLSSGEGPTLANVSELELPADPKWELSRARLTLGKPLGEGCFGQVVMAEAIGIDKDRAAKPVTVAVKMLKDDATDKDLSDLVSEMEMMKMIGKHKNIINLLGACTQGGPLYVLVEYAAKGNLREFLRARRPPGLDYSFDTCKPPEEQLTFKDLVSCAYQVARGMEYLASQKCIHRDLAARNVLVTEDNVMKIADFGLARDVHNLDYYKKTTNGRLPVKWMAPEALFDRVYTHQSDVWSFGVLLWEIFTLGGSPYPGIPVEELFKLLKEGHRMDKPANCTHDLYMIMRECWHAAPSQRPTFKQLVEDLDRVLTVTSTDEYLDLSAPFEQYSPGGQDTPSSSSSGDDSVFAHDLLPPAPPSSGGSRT
# Chain of VEGFR2 (P35968 20-1356): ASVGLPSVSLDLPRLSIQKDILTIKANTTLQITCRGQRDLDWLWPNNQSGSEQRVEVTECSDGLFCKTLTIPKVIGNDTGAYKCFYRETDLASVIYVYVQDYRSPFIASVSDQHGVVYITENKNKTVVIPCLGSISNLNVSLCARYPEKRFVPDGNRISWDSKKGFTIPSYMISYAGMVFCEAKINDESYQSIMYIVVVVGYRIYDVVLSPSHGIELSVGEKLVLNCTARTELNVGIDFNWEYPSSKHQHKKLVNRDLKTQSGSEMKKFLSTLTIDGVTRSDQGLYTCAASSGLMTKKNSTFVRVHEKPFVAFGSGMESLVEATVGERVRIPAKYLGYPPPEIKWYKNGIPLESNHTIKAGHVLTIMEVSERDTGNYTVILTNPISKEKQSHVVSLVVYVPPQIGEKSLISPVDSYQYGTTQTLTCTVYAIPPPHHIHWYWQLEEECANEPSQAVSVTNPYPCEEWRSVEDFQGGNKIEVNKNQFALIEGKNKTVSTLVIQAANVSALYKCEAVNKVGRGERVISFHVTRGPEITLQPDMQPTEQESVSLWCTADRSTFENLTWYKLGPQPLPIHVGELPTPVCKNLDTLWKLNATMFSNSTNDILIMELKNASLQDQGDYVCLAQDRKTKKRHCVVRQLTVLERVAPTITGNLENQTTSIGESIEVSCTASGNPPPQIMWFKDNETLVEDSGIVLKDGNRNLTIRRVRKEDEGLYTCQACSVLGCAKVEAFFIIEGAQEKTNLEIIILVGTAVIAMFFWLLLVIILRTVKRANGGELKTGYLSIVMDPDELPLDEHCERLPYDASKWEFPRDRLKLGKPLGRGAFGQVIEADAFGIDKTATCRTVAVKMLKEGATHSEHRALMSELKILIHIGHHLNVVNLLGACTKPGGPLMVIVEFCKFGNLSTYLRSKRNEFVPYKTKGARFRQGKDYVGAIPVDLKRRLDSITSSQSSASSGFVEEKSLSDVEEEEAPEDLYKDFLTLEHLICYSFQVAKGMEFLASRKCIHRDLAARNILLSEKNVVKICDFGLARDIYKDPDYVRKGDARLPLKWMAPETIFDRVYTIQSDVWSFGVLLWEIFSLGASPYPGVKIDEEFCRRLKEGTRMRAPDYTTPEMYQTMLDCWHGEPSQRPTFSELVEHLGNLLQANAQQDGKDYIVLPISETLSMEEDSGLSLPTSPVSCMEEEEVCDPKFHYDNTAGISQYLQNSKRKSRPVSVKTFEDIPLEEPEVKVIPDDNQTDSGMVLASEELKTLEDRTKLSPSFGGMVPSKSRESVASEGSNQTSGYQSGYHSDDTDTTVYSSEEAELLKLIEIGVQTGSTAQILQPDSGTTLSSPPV
SMILES,IC50 [1] [µM],pIC50 (Ba/F3-TEL-FGFR3 cells),pIC50 ([2]; BaF3),further results
Cc1ccc(NC(=O)NCC(F)(F)F)cc1-c1cnc2cc(-c3ncc(F)c(N)n3)ccn12 [Compound 283],–,–,–,"pIC50 (FGFR3; read-out: FGFR3 IC50, […]): < 6.00; pIC50 (VEGFR2): < 5.00"
"O=C(NCC(F)(F)F)Nc1cccc(-c2cnc3cc(-c4ccc(NC5CCOCC5)nn4)ccn23)c1 [Example 66, 1-(3-{7-[6-(Tetrahydro-pyran-4-ylamino)-pyridazin-3-yl]-imidazo[1,2-a]pyridin-3-yl}-phenyl)-3-(2,2,2-trifluoro-ethyl)-urea bis-hydrochloride]",0.069,–,–,"IC50 (Ba/F3-TEL-FGFR3 cells): 0.046 µM; inhibition at 0.0003 µM (FGFR3; 3 h, read-out: FGFR3 % I): 43%; IC50 [2]: 1.9 µM"
O=C(NCC(F)(F)F)Nc1cccc(-c2cnc3cc(-c4ccnc(-n5ccnc5)n4)ccn23)c1 [Example 215],–,5.06,5.00,"inhibition at 0.1 µM (FGFR3; 3 h, read-out: FGFR3 % I): 39%; pIC50 (VEGFR2): < 5.00"
COc1cc(NC(=O)NCC(F)(F)F)cc(-c2cnc3cc(-c4ncccn4)ccn23)c1 [Compound 304],–,–,–,"inhibition at 0.1 µM (FGFR3; 3 h, read-out: FGFR3 % I): 55%; inhibition at 3 µM (VEGFR2): 59%"
"CS(=O)(=O)N1CCC(n2cc(-c3ccn4c(-c5cccc(NC(=O)NCC(F)(F)F)c5)cnc4c3)cn2)CC1 [Example 74, 1-(3-{7-[1-(1-Methanesulfonyl-piperidin-4-yl)-1H-pyrazol-4-yl]-imidazo [1,2-a]pyridin-3-yl}-phenyl)-3-(2,2,2-trifluoro-ethyl)-urea]",0.018,7.02,6.09,"inhibition at 0.0003 µM (FGFR3; 3 h, read-out: FGFR3 % I): 51.5%"
CC(C)(O)c1ccc(-c2ccn3c(-c4cccc(NC(=O)NCC(F)(F)F)c4)cnc3c2)cc1 [Compound 321],–,7.68,6.34,"inhibition at 0.0003 µM (FGFR3; 3 h, read-out: FGFR3 % I): 36%"
CCCCCOC(=O)Nc1nc(-c2ccn3c(-c4cccc(NC(=O)NCC(F)(F)F)c4)cnc3c2)ncc1F [Compound 331],–,5.80,–,"inhibition at 0.03 µM (FGFR3; 3 h, read-out: FGFR3 % I): 42%; inhibition at 3 µM (VEGFR2): 43%; inhibition at 10 µM [2, 3]: 60%"
CNC(=O)c1ccc(-c2ccn3c(-c4cccc(NC(=O)NCC(F)(F)F)c4)cnc3c2)nc1 [Example 224],–,7.48,–,"inhibition at 0.001 µM (FGFR3; 3 h, read-out: FGFR3 % I): 61%; inhibition at 3 µM [2, 4]: 16%"
"CN1CCCC(n2cc(-c3ccn4c(-c5cccc(NC(=O)NCC(F)(F)F)c5)cnc4c3)cn2)C1 (centres unmarked) [Example 38, 1-(3-{7-[1-(1-Methylpiperidin-3-yl)-1H-pyrazol-4-yl]imidazo[1,2-a]pyridin-3-yl]phenyl)-3-(2,2,2-trifluoroethyl)urea hydrochloride]",0.0086,7.66,6.36,–
COCCNc1nnc(-c2ccn3c(-c4cccc(NC(=O)NCC(F)(F)F)c4)cnc3c2)s1 [Compound 288],–,7.46,–,"inhibition at 0.0003 µM (FGFR3; 3 h, read-out: FGFR3 % I): 54%; inhibition at 10 µM [2, 4]: 7.8%"
CNc1cc(-c2ccn3c(-c4cccc(NC(=O)NCC(F)(F)F)c4)cnc3c2)ncn1 [Example 195],–,7.12,5.30,"inhibition at 0.00097 µM (FGFR3; 3 h, read-out: FGFR3 % I): 66%"
"CC(C)(C(=O)N1CCC1)n1cc(-c2ccn3c(-c4cccc(NC(=O)NCC(F)(F)F)c4)cnc3c2)cn1 [Example 73, 1-(3-{7-[1-(2-Azetidin-1-yl-1,1-dimethyl-2-oxo-ethyl)-1H-pyrazol-4-yl]-imidazo[1,2-a]pyridin-3-yl}-phenyl)-3-(2,2,2-trifluoro-ethyl)-urea]",0.12,6.89,5.43,"inhibition at 0.001 µM (FGFR3; 3 h, read-out: FGFR3 % I): 60%"
CCNC(=O)Nc1cccc(-c2cnc3cc(-c4nnc(C(F)(F)F)s4)ccn23)c1 [Example 236],–,–,–,"inhibition at 0.31 µM (FGFR3; 3 h, read-out: FGFR3 % I): 46%"
"CC(C)N1CCC(n2cc(-c3ccn4c(-c5cccc(NC(=O)NCC(F)(F)F)c5)cnc4c3)cn2)CC1 [Example 50, 1-(3-{7-[1-(1-Isopropylpiperidin-4-yl)-1H-pyrazol-4-yl]imidazo[1,2-a]pyridin-3-yl}-phenyl)-3-(2,2,2-trifluoroethyl)urea hydrochloride]",0.021,7.54,6.15,"inhibition at 0.0003 µM (FGFR3; 3 h, read-out: FGFR3 % I): 39%"
"CCN1CCC(n2cc(-c3ccn4c(-c5cccc(NC(=O)NCC(F)(F)F)c5)cnc4c3)cn2)C1 (centres unmarked) [Example 44, 1-(3-{7-[1-(1-Ethyl-pyrrolidin-3-yl)-1H-pyrazol-4-yl)-imidazo[1,2-a]pyridin-3-yl}-phenyl)-3-(2,2,2-trifluoro-ethyl)-urea]",0.022,7.35,6.05,–
"CC(C)(CO)n1cc(-c2ccn3c(-c4cccc(NC(=O)NCC(F)(F)F)c4)cnc3c2)cn1 [Example 10, 1-(3-{7-[1-(2-Hydroxy-1,1-dimethylethyl)-1H-pyrazol-4-yl]-imidazo[1,2-a]pyridin-3-yl}phenyl)-3-(2,2,2-trifluoroethyl)urea]",0.047,6.52,5.64,"inhibition at 0.001 µM (FGFR3; 3 h, read-out: FGFR3 % I): 50%"
"O=C(NCC(F)(F)F)Nc1cccc(-c2cnc3cc(-c4cccnn4)ccn23)c1 [Example 9, 1-[3-(7-Pyridazin-3-ylimidazo[1,2-a]pyridin-3-yl)phenyl]-3-(2,2,2-trifluoroethyl)urea hydrochloride]",0.14,6.10,5.19,–
CCNc1nnc(-c2ccn3c(-c4cccc(NC(=O)NCC(F)(F)F)c4)cnc3c2)s1 [Compound 286],–,–,–,"inhibition at 3 µM (Ba/F3-TEL-FGFR3 cells; read-out: BaF3-TEL-FGFR3 prolif, % inhibition): 55%; inhibition at 0.0003 µM (FGFR3; 3 h, read-out: FGFR3 % I): 57%; inhibition at 10 µM [2, 4]: 0%"
"CC(C)N1CC(n2cc(-c3ccn4c(-c5cccc(NC(=O)NCC(F)(F)F)c5)cnc4c3)cn2)C1 [Example 32, 1-(3-{7-[1-(1-Isopropylazetidin-3-yl)-1H-pyrazol-4-yl]imidazo[1,2-a]pyridin-3-yl}phenyl)-3-(2,2,2-trifluoroethyl)-urea]",0.014,7.92,6.17,–
"CC(=O)N1CCC(n2cc(-c3ccn4c(-c5cccc(NC(=O)NCC(F)(F)F)c5)cnc4c3)cn2)CC1 [Example 63, 1-(3-{7-[1-(1-Acetyl-piperidin-4-yl)-1H-pyrazol-4-yl]-imidazo[1,2-a]pyridin-3-yl}-phenyl)-3-(2,2,2-trifluoro-ethyl)-urea formate]",0.05,–,–,"IC50 (Ba/F3-TEL-FGFR3 cells): 0.092 µM; inhibition at 0.0003 µM (FGFR3; 3 h, read-out: FGFR3 % I): 50.5%; IC50 [2]: 1.4 µM"
O=C(NCC(F)(F)F)Nc1cccc(-c2cnc3cc(-c4ccc(O)cn4)ccn23)c1 [Example 202],–,6.59,–,"inhibition at 0.001 µM (FGFR3; 3 h, read-out: FGFR3 % I): 46%; inhibition at 1 µM [2, 4]: 21%"
N#CCc1cc(NC(=O)NCC(F)(F)F)cc(-c2cnc3cc(-c4ccnc(C(F)(F)F)n4)ccn23)c1 [Compound 310],–,–,–,"inhibition at 0.3 µM (FGFR3; 3 h, read-out: FGFR3 % I): 36%; pIC50 (VEGFR2): < 5.52"
CCNC(=O)Nc1cccc(-c2cnc3cc(-c4ncc(OC)cn4)ccn23)c1 [Example 230],–,7.05,6.80,"inhibition at 0.003 µM (FGFR3; 3 h, read-out: FGFR3 % I): 49%"
"CC(C)(C)OC(=O)N1CCC(n2cc(-c3ccn4c(-c5cncc(NC(=O)NCC(F)(F)F)c5)cnc4c3)cn2)CC1 [Example 55, 4-[4-(3-{5-[3-(2,2,2-Trifluoro-ethyl)-ureido]-pyridin-3-yl}-imidazo[1,2-a]pyridin-7-yl)-pyrazol-1-yl]-piperidine-1-carboxylic acid tert-butyl ester]",–,–,–,"inhibition at 0.0003 µM (FGFR3; 3 h, read-out: FGFR3 % I): 38%"
Nc1nc(-c2ccn3c(-c4cc(NC(=O)NCC(F)(F)F)cc(OC5CCCC5)c4)cnc3c2)ncc1F [Compound 281],–,–,5.85,"inhibition at 0.1 µM (FGFR3; 3 h, read-out: FGFR3 % I): 42%"
O=C(NCC(F)(F)F)Nc1cccc(-c2cnc3cc(-c4cnc(C(F)(F)F)nc4)ccn23)c1 [Example 232],–,7.35,6.22,"inhibition at 0.001 µM (FGFR3; 3 h, read-out: FGFR3 % I): 45%"
NC1CCN(c2ccc(-c3ccn4c(-c5cccc(NC(=O)NCC(F)(F)F)c5)cnc4c3)cn2)CC1 [Compound 330],–,7.57,6.25,"inhibition at 0.00097 µM (FGFR3; 3 h, read-out: FGFR3 % I): 66%"
"Cc1noc(C)c1C#Cc1ccn2c(-c3cccc(NC(=O)NCC(F)(F)F)c3)cnc2c1 [Example 112, 1-{3-[7-(3,5-Dimethyl-isoxazol-4-ylethynyl)-imidazo[1,2-a]pyridin-3-yl]-phenyl}-3-(2,2,2-trifluoro-ethyl)-urea trifluoroacetate]",–,–,–,"inhibition at 0.3 µM (FGFR3; 3 h, read-out: FGFR3 % I): 49%"
"O=C(NCC(F)(F)F)Nc1cccc(-c2cnc3cc(-c4ccc(N5CCNCC5)nn4)ccn23)c1 [Example 23, 1-{3-[7-(6-Piperazin-1-ylpyridazin-3-yl)-imidazo[1,2-a]pyridin-3-yl]phenyl}-3-(2,2,2-trifluoroethyl)urea trifluoroacetate]",0.63,6.38,–,"inhibition at 0.001 µM (FGFR3; 3 h, read-out: FGFR3 % I): 58%; inhibition at 10 µM [2, 3]: 0%"
